This note sets out measurements from US20160106439A1, “PNEUMATIC TOURNIQUET” (BIONUMERIK PHARMACEUTICALS, INC., priority 2013, published 2016).

One experiment concerns the target recombinant human MET (Homo sapiens, UniProt P08581). Nature of the experiment: biochemical. The method, then: The substrate that was phosphorylated by the kinase, polyglutamate-tyrosine (PolyGT), was purchased from SignalChem (Cat. #P61-58, lot #R098-4).
All other reagents were purchased from Sigma Aldrich. A Tecan Ultra microplate reader with XFluor4 software (Tecan, V4.51) and RdrOle software (Tecan, V4.50) were used in this study.
MET phosphorylated the polyGT substrate using the ATP cofactor and produced ADP. […] For most assays, a stock of ATP (1 mM) and PolyGT (1 mg/mL) was used. […] The reactions, in microplate, were incubated for 60 minutes at 25° C. on a heat block. Following this 60 minute incubation, the kinase activity was evaluated using the ADP-Glo system from Promega that monitored ADP produced when MET phosphorylated the PolyGT substrate.
Kinase assays were run in triplicate or quadruplicate in microplates. Following this, the ADP-Glo detection system (Promega) was used to determine how much ADP had been produced. For 10 μL volume assays, to each microplate well containing 10 μL of kinase reaction was added ADP-Glo reagent (10 μL), plates were spun in a table top centrifuge (1000 rpm (123×g) for 1 minute) to ensure no reagent remained on the well walls, and then agitated for 1 minute to ensure optimal mixing. Plates were incubated at 25 C on a heat block for 40 minutes. Next, kinase detection reagent (20 μL) was added and, as above, centrifugation and agitation were repeated; plates were allowed to incubate at 25° C. on a heat block for 30 minutes. Following the incubation of the kinase detection reagent, plates were read on a Tecan Ultra microplate reader. The Tecan Ultra contained a built-in plate definition file for the whole area 96-well white Corning plates but a plate definition file for the half area 96-well Corning plates was created using the RdrOle component of the Tecan Ultra software.
Kinases vary in their ability to turnover ATP in vitro; therefore, the activity of the MET over a concentration range from 0.78 ng to 20 ng was evaluated in assay volumes of 10 μL. See, FIG. 7.
Therefore, each mole of polymer of 20,000 g/mole would contain approximately 28 moles of the glu-glu-glu-glu-tyr “subpolymer” in a 10 μL assay volume containing 1 μg of the polyGT substrate. […] This was a vast excess of possible tyrosine phosphorylation sites, ensuring that the substrate for phosphorylation was not rate limiting (assuming the higher mass range would produce an even larger excess of glu-glu-glu-glu-tyr “subpolymers”).
Data from MET assays run on the Tecan Ultra microplate spectrophotometer were collected in Microsoft Excel. Error calculations and graphical representations were performed in Microsoft Office Excel (Microsoft Corporation, Redmond, Wash., USA). Determination of IC25 and IC50 values were accomplished using Origin Lab software (OriginLab Corporation, Northampton, Mass., USA).

The target in experiment [1] is T1, Recombinant human peroxiredoxin 1 (Homo sapiens, UniProt Q06830).
T1 construct: purchased SigmaAldrich
T1 sequence (Q06830 1-199): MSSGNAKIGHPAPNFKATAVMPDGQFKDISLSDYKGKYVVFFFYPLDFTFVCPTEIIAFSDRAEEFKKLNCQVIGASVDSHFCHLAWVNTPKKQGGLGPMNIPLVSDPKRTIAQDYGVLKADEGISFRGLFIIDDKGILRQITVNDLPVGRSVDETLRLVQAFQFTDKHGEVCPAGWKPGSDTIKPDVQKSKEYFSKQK
Briefly: Tavocept-derived mesna adducts on Prx 1 (digest, LC-MS). Format: binding. As to the method:
Recombinant human peroxiredoxin 1 (purchased from SigmaAldrich; 333 μg; 0.015 micromoles) was reduced using an excess of dithiothreitol (DTT; 35 micromoles) in NH4HCO3 buffer (40 mM, pH 8.0) at 37° C. for 50 minutes (total reaction volume was 750 μL; final Prx concentration was 20 μM; and final DTT concentration was 46 mM). […] (total reaction volume was 500 μL). After 16-18 hours incubation, each reaction was removed and chromatographed using G25 Sephadex columns.
In brief, the G25 chromatographed Prx1 incubation reactions were digested with Trypsin Gold. Trypsin Gold was dissolved in 400 μL of NH4HCO3 and 100 μL of acetonitrile. A 100-150 μL volume of this Trypsin Gold stock was then added to 500 μL of the aforementioned final sample with 75 μL of acetonitrile and then the reaction volume was adjusted to a total of 750 μL with NH4HCO3. The sample was incubated for 6 hours at 37° C. Chymotrypsin digests were by dissolving chymotrypsin in 1M HCL. A 50 μL volume of this chymotrypsin stock solution was added to added to 500 μL of the aforementioned final sample along with 10% (v/v) of CaCl2 (100 mM stock). NH4HCO3 buffer was then added to bring the total reaction volume to 750 μL. Chymotrypsin digests were incubated for 16 hours at 30° C. Following digest by either trypsin or chymotrypsin, reactions were lyophilized to dryness overnight and then resuspended in a minimal amount of HPLC grade water prior to LC MS analyses.
A Symmetry C18 HPLC column (Waters, Franklin, Mass.; 3.5 μm; 4.6×75 mm) and a Waters Alliance liquid chromatography system (Waters 2695; Franklin, Mass.) coupled to a Micromass single quadropole mass detector (Micromass ZMD; Manchester, UK) were used to analyze fragments from trypsin or chymotrypsin digested human Prx1. The mobile phase contained 0.1% of formic acid throughout the run and the flow rate was 0.35 ml/min. […]

SMILES strings stand for the structures. Where two headings read alike, the source gives them in different places.

recombinant human MET, sequence (P08581 956-1390 limits assumed): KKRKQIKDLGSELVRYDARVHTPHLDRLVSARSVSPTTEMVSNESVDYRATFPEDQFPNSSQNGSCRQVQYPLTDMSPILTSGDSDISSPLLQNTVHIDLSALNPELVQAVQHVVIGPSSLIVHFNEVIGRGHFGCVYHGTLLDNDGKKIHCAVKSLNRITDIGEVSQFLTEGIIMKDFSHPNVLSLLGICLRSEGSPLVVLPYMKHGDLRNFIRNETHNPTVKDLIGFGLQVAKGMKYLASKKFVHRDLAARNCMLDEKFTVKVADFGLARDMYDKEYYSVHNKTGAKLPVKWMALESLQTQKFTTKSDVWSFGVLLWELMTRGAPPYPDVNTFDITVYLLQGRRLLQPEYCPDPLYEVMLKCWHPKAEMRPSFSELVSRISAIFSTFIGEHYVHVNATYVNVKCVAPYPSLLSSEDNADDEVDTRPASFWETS

Take `O=S(=O)([O-])CCSSCCS(=O)(=O)[O-].[Na+].[Na+]` [Tavocept, disodium 2,2′-dithio-bis-ethane sulfonate]: the “greater inhibition of MET than Staurosporine alone” value is on record as 22% at recombinant human MET (10 μM ATP, MET 0.1 ng/μL, 5 mM Tavocept + 100 nM Staurosporine); 8% on recombinant human MET (10 μM ATP, MET 0.1 ng/μL, 5 mM Tavocept + 300 nM Staurosporine); 23% at recombinant human MET (10 μM ATP, MET 0.1 ng/μL, 10 mM Tavocept + 100 nM Staurosporine); 8% on recombinant human MET (10 μM ATP, MET 0.1 ng/μL, 10 mM Tavocept + 300 nM Staurosporine). Moreover, the IC50 at recombinant human MET (IC50, MET 2.5 ng/μL, ATP 100 μM) is over 40 mM; on recombinant human MET (IC50 on MET, 10 μM ATP, 0.1 ng/μL MET) it was 15.2 ± 0.36 mM; on recombinant human MET (IC50 on MET, 10 μM ATP, 2.5 ng/μL MET, single experiment), 17.4 mM; on recombinant human MET (IC50 on MET, 100 μM ATP, 0.1 ng/μL MET, single experiment), 37.1 mM; on recombinant human MET (IC50 on MET, 100 μM ATP, 2.5 ng/μL MET), over 40 mM. For the same compound, the inhibition at 5000 µM at recombinant human MET (read-out: greater inhibition of MET than Crizotinib alone, 10 μM ATP, MET 0.1 ng/μL, 5 mM Tavocept + 20 nM Crizotinib) was found to be 10%; on recombinant human MET (read-out: greater inhibition of MET than Crizotinib alone, 10 μM ATP, MET 0.1 ng/μL, 5 mM Tavocept + 40 nM Crizotinib) it was 6%; on recombinant human MET (read-out: greater inhibition of MET than Crizotinib alone, 100 μM ATP, MET 2.5 ng/μL, 5 mM Tavocept + 45 nM Crizotinib) it was 15%; at recombinant human MET (read-out: greater inhibition of MET than Crizotinib alone, 100 μM ATP, MET 2.5 ng/μL, 5 mM Tavocept + 90 nM Crizotinib) it was 10%; at recombinant human MET (read-out: greater inhibition of MET than Staurosporine alone, 10 μM ATP, MET 0.1 ng/μL, 5 mM Tavocept + 100 nM Staurosporine), 22%; on recombinant human MET (read-out: greater inhibition of MET than Staurosporine alone, 10 μM ATP, MET 0.1 ng/μL, 5 mM Tavocept + 300 nM Staurosporine) it was 8%. Moreover, the inhibition at 10000 µM on recombinant human MET (read-out: greater inhibition of MET than Crizotinib alone, 10 μM ATP, MET 0.1 ng/μL, 10 mM Tavocept + 20 nM Crizotinib) worked out at 16%; at recombinant human MET (read-out: greater inhibition of MET than Crizotinib alone, 10 μM ATP, MET 0.1 ng/μL, 10 mM Tavocept + 40 nM Crizotinib) it was 11%; on recombinant human MET (read-out: greater inhibition of MET than Crizotinib alone, 100 μM ATP, MET 2.5 ng/μL, 10 mM Tavocept + 45 nM Crizotinib), 14%; on recombinant human MET (read-out: greater inhibition of MET than Crizotinib alone, 100 μM ATP, MET 2.5 ng/μL, 10 mM Tavocept + 90 nM Crizotinib), 10%; at recombinant human MET (read-out: greater inhibition of MET than Staurosporine alone, 10 μM ATP, MET 0.1 ng/μL, 10 mM Tavocept + 100 nM Staurosporine), 23%; on recombinant human MET (read-out: greater inhibition of MET than Staurosporine alone, 10 μM ATP, MET 0.1 ng/μL, 10 mM Tavocept + 300 nM Staurosporine) it was 8%. The “Tavocept-derived mesna Adduct detected?” value in experiment [1] (chymotryptic fragment TDKHGEVCPAGW (Cys 173) of human Prx 1), in experiment [1] (chymotryptic fragment VCPTEIIAF (Cys 52) of human Prx 1) and in experiment [1] (tryptic fragment HGEVCPAGWK (Cys 173) of human Prx 1) was “Yes” each time.

The term IC50 denotes the concentration that gives 50% inhibition. The inhibition is the relative decrease from the control value, in per cent.
